{
  "source": "ChEMBL document CHEMBL2095176",
  "about": "“GSK Tuberculosis Screening Data”",
  "data": [
    {"tested_on": "Mycobacterium tuberculosis variant bovis BCG", "assay": "microbe, parasite or virus in culture", "assay_type": "functional", "units": {"MIC90": "µM"}, "values": [
      {"smiles": "NC1CCCN(c2ncnc(-c3ccc4c(c3)CCC4)n2)C1", "note": "(stereo not given)", "MIC90": 9.3},
      {"smiles": "O=C(c1ccc(-c2cccc(OCCN3CCC(c4ccc(F)cc4)CC3)c2)cc1)N1CCCC1", "MIC90": 4.4},
      {"smiles": "Nc1cc(OCc2ccccc2)ccc1Nc1ccccc1", "MIC90": 2.1},
      {"smiles": "O=C(Nc1nc(-c2ccccn2)cs1)c1ccc2c(c1)CCCC2", "MIC90": 6.8},
      {"smiles": "Cc1ccc(CCNC(=O)c2c(-c3ccc(F)cc3F)noc2C)cc1", "MIC90": 9.8},
      {"smiles": "O=C(NNC(=O)C1CC1C(=O)O)c1ccncc1", "note": "(stereo not given)", "MIC90": 6.8},
      {"smiles": "O=C(O)C(F)(F)F.c1ccc(C[C@H]2CN(c3nccc(Oc4ccc(-n5ccnc5)cc4)n3)CCN2)cc1", "MIC90": 8.2},
      {"smiles": "Nn1c(=O)oc2ccc(Cl)cc2c1=O", "MIC90": 2.8},
      {"smiles": "CCOc1ccc(C(=O)Nc2nc(-c3ccccn3)cs2)cc1OCC", "MIC90": 5.6},
      {"smiles": "Cc1nc(-c2cccnc2)nc(N2CCCN(Cc3ccc(F)cc3)CC2)c1Cl", "MIC90": 5.5},
      {"smiles": "O=C(Nc1nc(CN2CCCCC2)cs1)c1ccccc1OCc1ccc(F)cc1", "MIC90": 6.2},
      {"smiles": "Cc1c(C(=O)[C@@H]2C[C@H]2CN(Cc2ccccn2)Cc2ccccn2)sc2ccccc12", "MIC90": 7.1},
      {"smiles": "O=C(Nc1ccc(C(F)(F)F)cc1)NC1CCCCC1", "MIC90": 4.3},
      {"smiles": "CCCOC(=O)COc1ccc2c(=O)c(-c3ccccc3OC)coc2c1", "MIC90": 9.8},
      {"smiles": "CSc1ccc(-c2nnc(NC(=O)c3cc(Cl)sc3Cl)o2)cc1", "MIC90": 9.4},
      {"smiles": "O=C(Nc1nnc(-c2ccc(Cl)cc2)o1)c1ccc(F)cc1", "MIC90": 3.9},
      {"smiles": "O=C(Nc1nc(-c2ccccn2)cs1)c1cc2c(F)cccc2s1", "MIC90": 2.1},
      {"smiles": "Clc1cc(N2CCN(c3ccncc3)CC2)ncn1", "MIC90": 5.1},
      {"smiles": "Cc1cc(C)cc(Oc2c(C(C)C)c(=O)[nH]c(=O)n2Cc2cc(N)nc(F)c2)c1", "MIC90": 9.8},
      {"smiles": "COc1ccc(-c2cc(NC(=O)c3ccc(F)cc3Cl)ccc2OC)cc1", "MIC90": 8.2},
      {"smiles": "CCc1c(C)nc(-c2cccc(F)c2)nc1N1CCNCC1", "MIC90": 7.6},
      {"smiles": "CS(=O)(=O)Nc1cccc(-c2cnc3[nH]cc(-c4cccc(CCN)c4)c3c2)c1", "MIC90": 9.8},
      {"smiles": "CCOc1cc(OCC)c(C(=O)C(C)C)cc1C(=O)Nc1cccc2c1CCN(C)C2", "MIC90": 9.6},
      {"smiles": "O=C(NC1CCN(Cc2ccsc2)C1)c1sccc1-c1cccc(Cl)c1", "note": "(stereo not given)", "MIC90": 9},
      {"smiles": "Cc1csc2nc(Cc3ccc(C(=O)c4ccc(C(=O)OCc5ccccc5)cc4)cc3)oc(=O)c12", "MIC90": 2.3},
      {"smiles": "COc1ccc(-c2ccc(Nc3cccc(S(=O)(=O)CCN(C)Cc4cccs4)c3)nc2)cn1", "MIC90": 7.9},
      {"smiles": "Oc1cc(CSc2ccc(Cl)cc2)nc(-c2ccccn2)n1", "MIC90": 5.3},
      {"smiles": "O=C(CCC1CCCCC1)Nc1cccc(-c2nnc(-c3ccco3)o2)c1", "MIC90": 9.2},
      {"smiles": "O=C(Nc1nnc(-c2ccccc2)o1)c1ccc2c(c1)CCCC2", "MIC90": 4.1},
      {"smiles": "c1ccc(-c2nnc(Sc3ccnc(N4CCN(c5ccncc5)CC4)n3)n2CCCN2CCOCC2)nc1", "MIC90": 4.6},
      {"smiles": "Cc1ccc2[nH]c(SCC(=O)NNC(=O)c3cccs3)nc2c1", "MIC90": 5.9},
      {"smiles": "Cc1ccc(NC(=O)CCC(=O)NNC(=O)c2cccs2)cc1C", "MIC90": 8.3},
      {"smiles": "O=C(COc1ccc2c(c1)CCC2)NNC(=O)c1cccs1", "MIC90": 4.2},
      {"smiles": "NC(=O)c1cnc2ccc(S(=O)(=O)c3ccccc3)cc2c1Nc1ccc(O)cc1", "MIC90": 2.9},
      {"smiles": "Cn1cc(NC(=O)c2cc(NC(=O)CNC(=N)N)cn2C)cc1C(=O)NCCC(=N)N", "note": "[NETROPSIN CHLORIDE]", "MIC90": 3.6},
      {"smiles": "Cc1n[nH]c(C)c1S(=O)(=O)Nc1ccc2c[nH]nc2c1", "MIC90": 6.2},
      {"smiles": "Cc1ccc2nc(C(F)(F)F)c(C(=O)NCc3cccc(OC(C)C)c3)n2c1", "MIC90": 1.9},
      {"smiles": "Cc1cc(/C=C/c2cccc(C(=O)O)c2)cc(Cl)c1OC1CCN(C)C1", "note": "(stereo not given)", "MIC90": 8},
      {"smiles": "CSc1ccc(-c2nnc(NC(=O)c3cccc(F)c3)o2)cc1", "MIC90": 3.9},
      {"smiles": "c1ccc(-n2ncc3c(N4CCCNCC4)nc(C4CC4)nc32)cc1", "MIC90": 4.1},
      {"smiles": "O=c1nc(Oc2ccccc2)c(F)c[nH]1", "MIC90": 4.2},
      {"smiles": "CCCc1cc(N2CCN(CC#N)CC2)n2ncc(-c3ccccc3)c2n1", "MIC90": 5.1},
      {"smiles": "Nc1ccccc1Nc1ccc2c(c1)OCO2", "MIC90": 1.7},
      {"smiles": "CC(C)N(C(=O)CSc1nc2cc(Cl)ccc2[nH]1)C(C)C", "MIC90": 9.5},
      {"smiles": "Cc1nnc(NCc2ccccc2)c2ccccc12", "MIC90": 4.4},
      {"smiles": "O=C(Nc1nc2c(F)cc(F)cc2s1)C1CCCN1S(=O)(=O)c1cccs1", "note": "(stereo not given)", "MIC90": 6.3},
      {"smiles": "C=CCNCCS(=O)(=O)c1cccc(Nc2ccc(-c3cccc(F)c3)cn2)c1", "MIC90": 3.1},
      {"smiles": "COc1cc(NC(=O)c2sc(-c3ccc(Cl)cc3)cc2/N=C2/CCCCN2C)ccc1OCCN1CCCC1", "MIC90": 6},
      {"smiles": "O=C(Nc1nnc(-c2ccc(Cl)cc2)o1)c1ccc(Cl)cc1", "MIC90": 2.8},
      {"smiles": "Cc1ccc2nc(C(F)(F)F)c(C(=O)NCc3cc(Cl)cc(Cl)c3)n2c1", "MIC90": 0.6},
      {"smiles": "COc1cccc(-c2cc(OC[C@@H]3CCCN3)cnc2-c2cccc(C(F)(F)F)c2)c1", "MIC90": 5.9},
      {"smiles": "COCCN1CCN(c2ccnc(-n3cnc4cc(C)c(C)cc43)n2)CC1", "MIC90": 0.8},
      {"smiles": "Cc1ccc(-c2nnc(NC(=O)c3cccc(F)c3)o2)cc1C", "MIC90": 5},
      {"smiles": "CCc1cc(=O)[nH]c(-n2nc(C)cc2NC(=O)c2ccc(C(C)(C)C)cc2)n1", "MIC90": 0.8},
      {"smiles": "COc1ccc(CCNc2cc(-c3ccccc3)nc3ncnn23)cc1", "MIC90": 1}
    ]}
  ]
}
